Series [1] deals with Kaolin-induced edema of the hind paw of the rat. Nature of the series: Kaolin-induced edema of the hind paw of the rat (antiexudative effect). Format: in vivo, rat (male FW 49). The settings on record: per os, 30 min before edema, measured 5 h after, dose for 35% reduction of swelling, by graphical extrapolation. The protocol: (§1) The compounds were tested with respect to their antiexudative effect on the kaolin-induced edema and the carrageenin-induced edema of the hind paw of the rat and with respect to their acute toxicity after oral administration to rats, in comparison with phenylbutazone, a compound with known antiphlogistic activities.
(§2) a. Kaolin-induced edema of the hind paw of the rat
(§3) The kaolin edema was induced according to the method given by Hillebrecht [Arzneimittel-Forsch. 4, 607 (1954)] by subplantary injection of 0.05 ml of a 10% suspension of kaolin in a 0.85% sodium chloride solution. Measurement of the volume of the paws was effected using the technique of Doepfner and Cerletti [Int. Arch. Allergy Immunol. 12, 89 (1958)].
(§4) Male FW 49 rats having an average weight of 120 to 150 gm were fed with the test compounds 30 minutes before inducing the edema by means of an oesophageal tube. 5 hours after the provocation of the edema the averaged values of the swelling caused in the rats treated with the test compounds were compared with values measured on control animals. By graphical extrapolation, the dose leading to a 35% reduction of the swelling (ED35) was calculated from the presentage reduction values measured by the administration of different doses.

Series [2] is described as follows: Therapeutic index (LD50/ED35). The settings on record: in vivo; oral LD50 / average ED35, rat; read-out: Therapeutical Index, ratio between toxic and antiexudative activity LD50/ED35. The protocol: (§5) The therapeutical index (a measure for the therapeutic usefulness) was calculated as the quotient of the oral LD50 and of the ED35 value calculated from the anti-exudative effect (average value from the kaolin-edema and the carrageenin-edema).

For series [3], the system named is Carrageenin-induced edema of the hind paw of the rat. Put plainly: Carrageenin-induced edema of the hind paw of the rat (antiexudative effect). The class given is in vivo, rat (male FW 49). The settings on record: per os, 60 min before edema, measured 3 h after, dose for 35% reduction of swelling. The protocol: as §1, §4
(§6) b. Carrageenin-induced edema of the hind paw of the rat
The provocation of the carrageenin edema was effected according to the method of Winter et al [Proc. Soc. exp. Biol. Med. 111, 544 (1962)] by subplantary injection of 0.05 ml of a 1% solution of carrageenin in a 0.85% solution of sodium chloride. The test compounds were administered 60 minutes before the provocation of the edema.
For the calculation of the reductive effect on the edema the values measured 3 hours after the provocation of the edema were used. All the other details were the same as described above in the case of the kaolin-induced edema.

In series [4] the test system is kaolin-induced edema and carrageenin-induced edema of the hind paw of the rat. Nature of the series: Antiphlogistic (antiexudative) activity, kaolin and carrageenin edema together. The following applies: average value from kaolin edema and carrageenin edema, per os. Format: in vivo, rat (male FW 49). As for the experimental part: The above pharmacodynamic activity of the compounds of the present invention, namely their antiphlogistic activity and their toxicity, were ascertained in the manner described below.
as §1, §2, §3, §4, §6
The provocation of the carrageenin edema was effected according to the method of Winter et al [Proc. Soc. exp. […]
For the calculation of the reductive effect on the edema the values measured 3 hours after the provocation of the edema were used. […]
as §5
In general terms: Carrageenan injected into the paw causes an acute inflammation.

The next series in a line: in vivo. The settings on record: rat; for LD50 at 336 h: in vivo, po. The text has this:
The substances were fed as a trituration in Tylose.
The calculation of the LD50 values was effected, as far as possible according to the method of Litchfield and Wilcoxon, based on the percentage of animals which died within 14 days after administration of the different doses.

Regarding `OCCC=Cc1ccc(-c2ccccc2)cc1` [B, 4-(4'-biphenylyl)-3-buten-1-ol], the values for the ED35 in series [1], in series [3] and in series [4] were 42 mg/kg, 50 mg/kg and 46 mg/kg, respectively. For the same molecule, the selectivity ratio in series [2] was greater than 43.5. Further, in “in vivo” (2000 mgm/kg per os), the “animals died after application” value is reported as 0 out of 10 animals died. The LD50 (usually the dose at which mortality reaches 50%) at 336 h in the series “in vivo” is greater than 2000 mg/kg.
Take `OCCC=Cc1ccc(-c2ccccc2F)cc1` [A, 4-(2"-fluoro-4'-biphenylyl)-3-buten-1-ol]: the ED35 was 44 mg/kg in series [1], 19 mg/kg in series [3] and 31.5 mg/kg in series [4]. For the same molecule, the selectivity ratio in series [2] amounted to 56.2. In addition, in “in vivo”, the LD50 at 336 h amounted to 1770 mg/kg.
For the molecule `CCCCC1C(=O)N(c2ccccc2)N(c2ccccc2)C1=O` [Phenylbutazone, phenylbutazone, reference compound], the ED35 is 58 mg/kg in series [1], 69 mg/kg in series [3] and 63.5 mg/kg in series [4].

The values above are taken from patent US3969418A, “(4-Biphenylyl)-butenols” (Boehringer Ingelheim GmbH, priority 1972, dated 1976).
